Data reported in patent US7776858B2, “Methods of treatment of chronic pain using eszopiclone” (Sepracor Inc., priority 2004, dated 2010).

Experiments:
[1] = test system: benzodiazepine receptor complex; settings: cited from earlier work
[2] = test system: mice; experiment: Antagonism of oxotremorine induced salivation; format: in vivo; settings: doses up to 300 mg/kg, p.o.
Experimental: (§1) Eszopiclone was evaluated for antimuscarinic activity in vivo.

[3] = test system: conscious dogs; experiment: Dose escalation safety study, cardiovascular and respiratory parameters after acute intravenous administration; settings: acute intravenous, 3, 5 and 12 mg/kg
Experimental: To establish the safety of eszopiclone, a dose escalation study was carried out. Cardiovascular and respiratory parameters were evaluated in conscious dogs following acute intravenous administration of (R)-, (S)- or racemic zopiclone at three doses (3, 5 and 12 mg/kg).

[4] = test system: mice; experiment: Antimuscarinic activity in vivo: mydriasis; settings: maximum dose 100 mg/kg, p.o.
Experimental: as §1

CN1CCN(C(=O)OC2c3nccnc3C(=O)N2c2ccc(Cl)cn2)CC1 (racemic) [racemic zopiclone, zopiclone]
binding to the benzodiazepine receptor complex [1]: binds to the benzodiazepine receptor complex | antagonism of oxotremorine induced salivation [2]: neither (R)-, (S)-, nor racemic zopiclone significantly antagonized | Blood gases and blood chemistries (pH, pCO2, pO2, hematocrit, and lactate) [3]: remained unaffected | cardiotoxicity by electrocardiogram (ECG) [3]: No evidence of cardiotoxicity | effect on blood pressure [3]: dose dependent, transient decreases | effect on heart rate [3]: compensatory increase | mydriasis [4]: did not produce mydriasis
